The NIST ThermoML archive (doi:10.1021/je049586l)
Numbers after ± are expanded uncertainties.

Experiment: molar enthalpy of vaporization or sublimation
Conditions: Crystal, Static calorimetry

O=C(O)c1ccc(C(=O)O)nc1 [2,5-pyridinedicarboxylic acid]
molar enthalpy (492 K): 46.5 ± 1.29 kcal/mol

COC(=O)c1cccc(C(=O)OC)n1 [2,6-pyridinedicarboxylic acid, dimethyl ester]
molar enthalpy (385 K): 31.1 ± 1.82 kcal/mol

O=C(O)c1cccc(C(=O)O)n1 [pyridine-2,6-dicarboxylic acid]
molar enthalpy (494 K): 40.2 ± 2.63 kcal/mol
